Test results taken from ChEMBL document CHEMBL1147428, “A new class of potent non-imidazole H(3) antagonists: 2-aminoethylbenzofurans” (Bioorg Med Chem Lett, 2004).

What was measured:
[1] = biological target: Histamine H3 receptor (Homo sapiens, UniProt Q9Y5N1); assay: Binding potency was determined by displacement of [3H]N-alpha-methyl histamine from cloned human histamine H3 receptor expressed in C6 cells; type: cell-based
[2] = biological target: T1, Histamine H3 receptor (Rattus norvegicus, UniProt Q9QYN8); assay: Binding potency was determined by displacement of [3H]N-alpha-methyl histamine from histamine H3 receptor of rat cortical membranes; type: cell membranes, Membrane
T1 sequence (Q9QYN8 whole entry): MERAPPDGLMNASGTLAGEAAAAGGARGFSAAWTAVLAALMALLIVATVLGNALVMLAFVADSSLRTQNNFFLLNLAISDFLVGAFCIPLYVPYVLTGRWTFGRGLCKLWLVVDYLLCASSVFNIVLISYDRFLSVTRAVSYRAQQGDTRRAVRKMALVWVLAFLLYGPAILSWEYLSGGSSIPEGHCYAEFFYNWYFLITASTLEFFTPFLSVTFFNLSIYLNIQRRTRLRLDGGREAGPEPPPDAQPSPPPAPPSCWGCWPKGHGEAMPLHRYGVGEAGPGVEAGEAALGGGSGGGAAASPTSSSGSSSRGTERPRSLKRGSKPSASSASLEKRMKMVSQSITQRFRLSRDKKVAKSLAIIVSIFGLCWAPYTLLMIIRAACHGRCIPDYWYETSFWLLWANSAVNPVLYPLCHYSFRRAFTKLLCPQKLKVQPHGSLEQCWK

[3] = biological target: T1, Histamine H3 receptor; assay: Binding potency by displacement of [3H]N-alpha-methyl histamine from histamine H3 receptor of rat cortical membranes; type: cell membranes, Membrane
[4] = biological target: T1, Histamine H3 receptor; assay: pBinding potency by displacement of [3H]N-alpha-methyl histamine from histamine H3 receptor of rat cortical membranes; type: cell membranes, Membrane

Sequence of Histamine H3 receptor (Homo sapiens, UniProt Q9Y5N1) (Q9Y5N1 whole entry): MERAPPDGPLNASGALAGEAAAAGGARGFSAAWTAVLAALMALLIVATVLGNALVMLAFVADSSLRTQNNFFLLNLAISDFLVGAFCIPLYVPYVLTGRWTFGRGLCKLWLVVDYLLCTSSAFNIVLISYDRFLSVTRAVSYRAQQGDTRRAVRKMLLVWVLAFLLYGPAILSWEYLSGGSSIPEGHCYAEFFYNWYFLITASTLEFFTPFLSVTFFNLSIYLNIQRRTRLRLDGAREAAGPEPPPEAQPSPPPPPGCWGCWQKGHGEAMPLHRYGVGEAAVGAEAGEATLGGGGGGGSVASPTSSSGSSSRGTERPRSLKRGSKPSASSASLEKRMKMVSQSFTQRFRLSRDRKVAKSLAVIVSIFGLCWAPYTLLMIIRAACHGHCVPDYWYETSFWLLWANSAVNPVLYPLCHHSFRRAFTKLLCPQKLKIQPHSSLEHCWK

CC1CCN(CCc2cc3cc(-c4ccc(C(=O)N5CCOCC5)cc4)ccc3o2)CC1
Ki [1]: 17 nM

CC1CCN(CCc2cc3cc(-c4ccc(C#N)cc4)ccc3o2)CC1
Ki [1]: 15 nM
Ki [2]: 16 nM

N#Cc1ccc(-c2ccc3oc(CCN4CCC[C@@H]4CC(=O)O)cc3c2)cc1
Ki [1]: 320 nM
Ki [2]: 1600 nM

C[C@@H]1CCCN1CCc1cc2cc(-c3ccc(C(=O)N4CCOCC4)cn3)ccc2o1
Ki [1]: 0.55 nM
Ki [2]: 1.6 nM

CN(C)[C@H]1CCN(CCc2cc3cc(-c4ccc(C#N)cc4)ccc3o2)C1
Ki [1]: 49 nM
Ki [2]: 140 nM

N#Cc1ccc(-c2ccc3oc(CCN4CCC[C@@H]4CO)cc3c2)cc1
Ki [1]: 18 nM

O=C(c1ccc(-c2ccc3oc(CCN4CCC[C@@H]4CO)cc3c2)nc1)N1CCOCC1
Ki [1]: 36 nM
Ki [2]: 110 nM

CC1CCN(CCc2cc3cc(-c4ccc(C(=O)N5CCOCC5)cn4)ccc3o2)CC1
Ki [1]: 87 nM
Ki [2]: 151 nM

C[C@@H]1CCC[C@H](C)N1CCc1cc2cc(-c3ccc(C(=O)N4CCOCC4)cn3)ccc2o1
Ki [1]: 5.6 nM
Ki [2]: 44.7 nM
Ki [3]: 45 nM

C[C@@H]1CCC[C@H](C)N1CCc1cc2cc(-c3ccc(C(=O)N4CCOCC4)cc3)ccc2o1
Ki [1]: 1.2 nM
Ki [2]: 6.6 nM

O=C(c1ccc(-c2ccc3oc(CCN4CCCCC4)cc3c2)cc1)N1CCOCC1
Ki [1]: 2.3 nM
Ki [2]: 6.2 nM

C[C@@H]1CC[C@@H](C)N1CCc1cc2cc(-c3ccc(C(=O)N4CCOCC4)cc3)ccc2o1
Ki [1]: 2.2 nM

CN(C)[C@@H]1CCN(CCc2cc3cc(-c4ccc(C#N)cc4)ccc3o2)C1
Ki [1]: 16 nM
Ki [2]: 63 nM

O=C(c1ccc(-c2ccc3oc(CCN4CCCCCC4)cc3c2)nc1)N1CCOCC1
Ki [1]: 16 nM
Ki [2]: 33 nM

O=C(c1ccc(-c2ccc3oc(CCN4CCC(O)C4)cc3c2)nc1)N1CCOCC1 (stereo unspecified)
Ki [1]: 12 nM

N#Cc1ccc(-c2ccc3oc(CCN4CCC[C@H]4CO)cc3c2)cc1
Ki [1]: 2.2 nM

O=C(c1ccc(-c2ccc3oc(CCN4CC=CCC4)cc3c2)cc1)N1CCOCC1
Ki [1]: 5.9 nM
Ki [2]: 17 nM

CC1CCCCN1CCc1cc2cc(-c3ccc(C(=O)N4CCOCC4)cc3)ccc2o1 (stereo unspecified)
Ki [1]: 3 nM
Ki [2]: 14 nM

N#Cc1ccc(-c2ccc3oc(CCN4CC=CCC4)cc3c2)cc1
Ki [1]: 10 nM
Ki [2]: 50 nM

O=C(c1ccc(-c2ccc3oc(CCN4CCCCC4)cc3c2)nc1)N1CCOCC1
Ki [1]: 12 nM
Ki [2]: 49 nM

O=C(c1ccc(-c2ccc3oc(CCN4CCOCC4)cc3c2)cc1)N1CCOCC1
Ki [1]: 45 nM
Ki [2]: 160 nM

CC1CCCCN1CCc1cc2cc(-c3ccc(C#N)cc3)ccc2o1 (stereo unspecified)
Ki [1]: 5.8 nM

N#Cc1ccc(-c2ccc3oc(CCN4CCC(O)C4)cc3c2)cc1 (stereo unspecified)
Ki [1]: 8.8 nM
Ki [2]: 95 nM

C[C@@H]1CC[C@@H](C)N1CCc1cc2cc(-c3ccc(C#N)cc3)ccc2o1
Ki [1]: 5.1 nM
Ki [2]: 42 nM

N#Cc1ccc(-c2ccc3oc(CCN4CCCCC4)cc3c2)cc1
Ki [1]: 8.8 nM

N#Cc1ccc(-c2ccc3oc(CCn4ccnc4)cc3c2)cc1
Ki [1]: 600 nM

C[C@@H]1CCC[C@H](C)N1CCc1cc2cc(-c3ccc(C#N)cc3)ccc2o1
Ki [1]: 2.4 nM
Ki [2]: 22 nM

O=C(c1ccc(-c2ccc3oc(CCN4CC[C@@H](O)C4)cc3c2)cc1)N1CCOCC1
Ki [1]: 6.2 nM
Ki [2]: 35 nM

O=C(c1ccc(-c2ccc3oc(CCN4CCC[C@H]4CO)cc3c2)cc1)N1CCOCC1
Ki [1]: 1.9 nM
Ki [2]: 6.9 nM

O=C(c1ccc(-c2ccc3oc(CCN4CCCCCC4)cc3c2)cc1)N1CCOCC1
Ki [1]: 3.5 nM

N#Cc1ccc(-c2ccc3oc(CCN4CCCCCC4)cc3c2)cc1
Ki [1]: 7.8 nM

C[C@@H]1CC[C@@H](C)N1CCc1cc2cc(-c3ccc(C(=O)N4CCOCC4)cn3)ccc2o1
Ki [1]: 5.9 nM
Ki [2]: 26 nM

O=C(c1ccc(-c2ccc3oc(CCN4CCCC4)cc3c2)nc1)N1CCOCC1
Ki [1]: 3.9 nM
Ki [2]: 29 nM

C[C@@H]1CCCN1CCc1cc2cc(-c3ccc(C(=O)N4CCOCC4)cc3)ccc2o1
Ki [1]: 0.7 nM
Ki [4]: 2 nM
Ki [2]: 1.95 nM

O=C(c1ccc(-c2ccc3oc(CCN4CCOCC4)cc3c2)nc1)N1CCOCC1
Ki [2]: 260 nM
